Source: patent publication US9273095B2, “Antibiotic peptide and preparation method therefor and application therefor” (priority 2011, dated 2016)
In brackets after ≈: the same amount, converted by molar mass. Like-named read-outs stand apart in the source and are kept apart here. Non-standard residues stand in square brackets, D forms with d. Residues, ends and D or L forms follow the SMILES beside them.

Columns and labels:
[1] = RP-HPLC temperature profiling: hydrophobicity and self-association; type: physicochemical; conditions: for Hydrophobicity tR5: retention time in RP-HPLC at pH 2, 5° C.; for Hydrophobicity tR80: retention time in RP-HPLC at pH 2, 80° C.; for tR(min) 5° C. / tR(min) 80° C.: RP-HPLC temperature profiling; for PA (min), association parameter: maximal normalized retention time difference within 5-80° C., self-association ability; for tR(min) Max: maximal retention time during temperature profiling 5-80° C.; for ΔtR(X-Peptide C)(min) 5° C.: retention time difference to control peptide C at 5° C.; for ΔtR(X-Peptide C)(min) 5° C. / ΔtR(X-Peptide C)(min) 80° C.: relative hydrophobicity; for ΔtR(X-Peptide C)(min) 80° C.: retention time difference to control peptide C at 80° C.
Procedure: Peptides are analyzed on an Agilent 1200 series liquid chromatograph (Little Falls, Del.). Runs are performed on a Zorbax 300 SB-C8 column (150×4.6 mm I.D.; 5 μm particle size, 300 Å pore size) from Agilent Technologies using linear AB gradient (1% acetonitrile/min) and a flow rate of 1 ml/min, where solvent A is 0.05% aqueous TFA, pH 2 and solvent B is 0.05% TFA in acetonitrile.
We further use temperature profiling during RP-HPLC to determine the self-association ability of various analogs of PL-13 (SEQ ID NO: 1) which would occur through interaction of the non-polar faces of these amphipathic peptides α-helices. We use 50% TFE aqueous acetonitrile and hydrophobic conditions in the reversed-phase column (hydrophobic stationary phase and the hydrophobic organic solvent in the mobile phase) since the hydrophobic environment of a reversed-phase column also could induce α-helical structure. Since its introduction, the technique of RP-HPLC temperature profiling has been applied on several types of molecules, including cyclic β-sheet peptides, monomeric α-helices and α-helices that dimerize, as well as α-helices that dimerize to form coiled-coils. Although peptides are eluted from a reversed-phase column mainly by an adsorption/desorption mechanism, even a peptide strongly bound to a hydrophobic stationary phase will partition between the matrix and the mobile phase when the acetonitrile content becomes high enough during gradient elution. In summary, the mechanism is based on four assumptions: (i) at low temperature, just as an amphipathic α-helical peptide is able to dimerize in aqueous solution (through its hydrophobic, non-polar face), it will dimerize in solution during partitioning in reversed-phase chromatography; (ii) at higher temperatures, the monomer-dimer equilibrium favors the monomer as the dimer is disrupted; (iii) at sufficiently high temperatures, only monomer is present in solution; and (iv) peptide is always bound in its monomeric helical form to the hydrophobic stationary phase, i.e., the dimer can only be present in solution and disruption of the dimer is required for rebinding to the RP-HPLC matrix.
([θ]222=−3,950). Since peptide C is a monomeric random coil peptide in both aqueous and hydrophobic media, its retention behavior over the temperature range 5-80° C. represents only general temperature effects on peptide retention behavior, i.e., a linear decrease in peptide retention time with increasing temperature due to greater solute diffusivity and enhanced mass transfer between the stationary and mobile phases at higher temperatures. Thus, after normalization to the retention times of peptide C, the retention behavior of the peptides only represents peptide self-association ability. Note that the higher the PA value, the greater the self-association ability. The order of peptide self-association ability of the three pairs of peptide enantiomers is identical to the order of peptide hydrophobicity. Apart from the decrease in retention time due to the general temperature effects noted above, destruction of the α-helix will also occur with increasing temperature, resulting in reduced retention times as the peptides become increasingly random coils.
The retention time data for the peptides is shown in Table 6 which records retention times at 5° C., the maximal retention times and retention times at 80° C. during the temperature profiling. Temperatures of 5-80° C. are the lower and upper temperature limits of temperature profiling in RP-HPLC, representing polymerization of the peptides at 5° C. and the monomerization of peptides at 80° C. due to denaturation of peptides by high temperature and dissociation of the polymers. The maximal retention times represent the threshold points at which peptides totally transform from polymeric to monomeric form. […]

Shigella = assay: microbe, parasite or virus in culture; type: cell-based
Procedure: (§1) The experimental strains are 37 standard strains preserved in lab and clinical isolated bacteria, including drug-resistant bacteria and quality-control bacteria selecting Staphylococcus aureus ATCC29213, Enterococcus faecalis ATCC29212, Escherichia coli ATCC25922, Pseudomonas aeruginosa ATCC27853 and klebsiella pneumoniae ATCC700603.
(§2) (1) Sensitivity test is conducted with two-fold agar dilution method and Denlay multipoint inoculator. Test bacteria are cultured with nutrient broth and brain heart infusion.
(§3) (2) The drug is double diluted into different concentration with MH broth after dissolved and then placed in the plate respectively.
(§4) (3) After dissolved, MH agar culture medium are injected into the plate with drug quantitatively and mixed to make the final concentration of drug are 0.03, 0.06, 0.125, . . . , 128 μg/ml respectively.
(§5) (4) After solidification of the culture medium in the plate, test bacteria (10^4CFU/point) are inoculated by multipoint inoculator and cultured for 18 hours at constant 35° C. Then observe the results.

[2] = test system: Staphylococcus epidermidis; assay: microbe, parasite or virus in culture; type: cell-based
Procedure: as §1, §2, §3, §4, §5

Shigella sonnei = assay: microbe, parasite or virus in culture; type: cell-based; conditions: Shigella sonnei strains 51592
Procedure: as §1, §2, §3, §4, §5

Shigella flexneri = assay: microbe, parasite or virus in culture; type: cell-based
Procedure: as §1, §2, §3, §4, §5

Staphylococcus aureus = assay: microbe, parasite or virus in culture; type: cell-based
Procedure: as §1, §2, §3, §4, §5

klebsiella pneumoniae = assay: microbe, parasite or virus in culture; type: cell-based
Procedure: as §1, §2, §3, §4, §5

Pseudomonas aeruginosa = assay: microbe, parasite or virus in culture; type: cell-based
Procedure: as §1, §2, §3, §4, §5

Typhoid bacillus H901 = assay: microbe, parasite or virus in culture; type: cell-based
Procedure: as §1, §2, §3, §4, §5

Escherichia coli = assay: microbe, parasite or virus in culture; type: cell-based
Procedure: as §1, §2, §3, §4, §5

[3] = 08-52(MRSA) Methicillin-resistant staphylococcus aureus

| Compound | Hydrophobicity tR5 [1] [min] | Hydrophobicity tR80 [1] [min] | MIC (Shigella) [µM] | MIC (Shigella sonnei) [µM] | MIC (Staphylococcus aureus; [3]) [µM] | MIC (Typhoid bacillus H901) [µM] | tR(min) 5° C. [1] [min] | tR(min) 80° C. [1] [min] | PA (min), association parameter [1] [min] | tR(min) Max [1] [min] | ΔtR(X-Peptide C)(min) 5° C. [1] [min] | ΔtR(X-Peptide C)(min) 80° C. [1] [min] | also measured |
| --- | --- | --- | --- | --- | --- | --- | --- | --- | --- | --- | --- | --- | --- |
| Ac-FKRLEKLFSKIWNWK-NH2 [PL-12] | 38.04 | 36.10 | 1.7 | 2.7 | 1.3 | 5.3 |  |  |  |  |  |  | MIC ([2]; 08-17 (MSSE) Meticillin susceptible staphylococcus epidermidis): 2.7 µM; MIC ([2]; 08-18 (MRSE) Methicillin-resistant staphylococcus epidermidis): 1.3 µM; MIC ([2]; (MRSE) Methicillin-resistant Staphylococcus epidermidis ATCC12228): 1.3 µM; MIC (Shigella flexneri): 2.7 µM; MIC (Staphylococcus aureus; 08-49(MSSA) Meticillin susceptible staphylococcus aureus): 0.7 µM; MIC (Staphylococcus aureus; Staphylococcus aureus ATCC25923): 1.3 µM; MIC (Staphylococcus aureus; Staphylococcus aureus ATCC29213): 1.3 µM; MIC (Staphylococcus aureus; strain 15 (listed under Staphylococcus aureus)): 1.3 µM; MIC (klebsiella pneumoniae; 08-2 (ESBLs) (listed under klebsiella pneumoniae)): 5.3 µM; MIC (klebsiella pneumoniae; klebsiella pneumoniae ATCC700603): 2.7 µM; MIC (klebsiella pneumoniae; strain 7 (listed under klebsiella pneumoniae)): 5.3 µM; MIC (Pseudomonas aeruginosa; Pseudomonas aeruginosa TCC27853): 5.3 µM; MIC (Pseudomonas aeruginosa; strain 17 (listed under Pseudomonas aeruginosa)): 2.7 µM; MIC (Escherichia coli; 272(TEM-88)): 0.7 µM; MIC (Escherichia coli; 274 (TEM-15)): 1.3 µM; MIC (Escherichia coli; 276 (TEM-52)): 1.3 µM |
| CC(=O)N[C@H](Cc1ccccc1)C(=O)N[C@H](CCCCN)C(=O)N[C@H](CCCCN)C(=O)N[C@H](CC(C)C)C(=O)N[C@H](CCCCN)C(=O)N[C@H](CCCCN)C(=O)N[C@H](CC(C)C)C(=O)N[C@H](Cc1ccccc1)C(=O)N[C@H](CO)C(=O)N[C@H](CCCCN)C(=O)N[C@H](CC(C)C)C(=O)N[C@H](Cc1c[nH]c2ccccc12)C(=O)N[C@H](CC(N)=O)C(=O)N[C@H](Cc1c[nH]c2ccccc12)C(=O)N[C@H](CCCCN)C(N)=O [PL-18] (Ac-[dF][dK][dK][dL][dK][dK][dL][dF][dS][dK][dL][dW][dN][dW][dK]-NH2) | 35.75 | 33.37 | 1.3 (≈ 2.65 µg/mL) | 0.04 (≈ 0.0814 µg/mL) | 2.7 (≈ 5.5 µg/mL) | 0.3 (≈ 0.611 µg/mL) | 35.75 | 33.37 | 0.56 | 35.75 | 13.19 | 13.45 | MIC [2]: 0.7 µM (≈ 1.42 µg/mL); MIC (Staphylococcus aureus): 0.7 µM (≈ 1.42 µg/mL) |
| CC(=O)N[C@H](Cc1ccccc1)C(=O)N[C@H](CCCCN)C(=O)N[C@H](CCCCN)C(=O)N[C@H](Cc1ccccc1)C(=O)N[C@H](CCCCN)C(=O)N[C@H](CCCCN)C(=O)N[C@H](CC(C)C)C(=O)N[C@H](CC(C)C)C(=O)N[C@H](CO)C(=O)N[C@H](CCCCN)C(=O)N[C@H](CC(C)C)C(=O)N[C@H](Cc1c[nH]c2ccccc12)C(=O)N[C@H](CC(N)=O)C(=O)N[C@H](Cc1c[nH]c2ccccc12)C(=O)N[C@H](CCCCN)C(N)=O [PL-43] (Ac-[dF][dK][dK][dF][dK][dK][dL][dL][dS][dK][dL][dW][dN][dW][dK]-NH2; N-terminus and C-terminus assumed) | 41.64 | 40.52 |  |  |  |  | 41.64 | 40.52 | 1.65 | 41.97 | 19.08 | 20.60 |  |
